# Several values for one entry are separate records, joined by “and”; a condition that tells them apart may be missing. Equal values may be shown once.
# What was measured:
# [1] = system: human primary hepatocytes; test: Metabolic disposition of [^14C]-Compound 1 and [^14C]-2′-C-methyl guanosine in human primary hepatocytes (incubation medium, cellular extracts, nucleotide levels); assay type: in vitro ADME
# Method in brief: (§1)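 Rat, monkey or human primary hepatocytes on collagen I plates (1.6 million cells/mL) were incubated at 37° C with 1 or 10 μM C-8 [^14C]-labelled compound or 2′-C-methyl guanosine for 1, 4, 8 and 24 hours. Medium and 70% methanol cell extracts were analysed by LSC and radio-HPLC. Nucleotides were identified by alkaline phosphatase treatment and retention-time matching to standards.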
# [2] = system: monkey primary hepatocytes; test: Metabolic disposition of [^14C]-Compound 1 and [^14C]-2′-C-methyl guanosine in monkey primary hepatocytes (incubation medium, cellular extracts, nucleotide levels); assay type: in vitro ADME, Cynomolgus monkey
# Method in brief: as §1
# [3] = human hepatocytes (Hu775), 1 μM [^14C]-Compound 1, 1 h
# [4] = human hepatocytes (Hu775), 1 μM [^14C]-Compound 1, 8 h
# [5] = human hepatocytes (Hu775), 1 μM [^14C]-Compound 1, 24 h
# [6] = human hepatocytes Hu775, 1 μM [^14C]-2′-C-methyl guanosine, 1 h
# [7] = human hepatocytes Hu775, 1 μM [^14C]-2′-C-methyl guanosine, 8 h
# [8] = human hepatocytes Hu775, 1 μM [^14C]-2′-C-methyl guanosine, 24 h
# [9] = monkey hepatocytes (Cy234), 10 μM [^14C]-Compound 1, 4 h
# [10] = monkey hepatocytes Cy230, 10 μM [^14C]-2′-C-methyl guanosine, 1 h
# [11] = monkey hepatocytes Cy230, 10 μM [^14C]-2′-C-methyl guanosine, 8 h
# [12] = monkey hepatocytes Cy230, 10 μM [^14C]-2′-C-methyl guanosine, 24 h
# [13] = monkey hepatocytes Cy234, 10 μM [^14C]-2′-C-methyl guanosine, 1 h
# [14] = monkey hepatocytes Cy234, 10 μM [^14C]-2′-C-methyl guanosine, 4 h
# [15] = monkey hepatocytes Cy234, 10 μM [^14C]-2′-C-methyl guanosine, 8 h
# [16] = monkey hepatocytes Cy234, 10 μM [^14C]-2′-C-methyl guanosine, 24 h
smiles,measurement,setting,value
"C[C@@]1(O)[C@H](O)[C@@H](COP(=O)(O)OP(=O)(O)O)O[C@H]1n1cnc2c(=O)[nH]c(N)nc21 [Compound 6, [(2R)-2-methyl-β-D-ribofuranosyl]guanine 5′-diphosphate]",metabolites observed in cellular extracts (% of total radioactivity),"[1]; human hepatocytes (Hu759, Hu775), 10 μM [^14C]-2′-C-methyl guanosine, 1 h",0.51% and 0.63%
same,metabolites observed in cellular extracts (% of total radioactivity),"[1]; human hepatocytes (Hu759, Hu775), 10 μM [^14C]-2′-C-methyl guanosine, 4 h",1.64% and 2.36%
same,metabolites observed in cellular extracts (% of total radioactivity),"[1]; human hepatocytes (Hu759, Hu775), 10 μM [^14C]-2′-C-methyl guanosine, 8 h",4.54% and 3.46%
same,metabolites observed in cellular extracts (% of total radioactivity),"[1]; human hepatocytes (Hu759, Hu775), 10 μM [^14C]-2′-C-methyl guanosine, 24 h",7.71% and 10.6%
same,metabolites observed in cellular extracts (% of total radioactivity),"[1]; human hepatocytes (Hu759, Hu775), 10 μM [^14C]-Compound 1, 1 h",4.93% and 6.09%
same,metabolites observed in cellular extracts (% of total radioactivity),"[1]; human hepatocytes (Hu759, Hu775), 10 μM [^14C]-Compound 1, 4 h",8.01% and 12.4%
same,metabolites observed in cellular extracts (% of total radioactivity),"[1]; human hepatocytes (Hu759, Hu775), 10 μM [^14C]-Compound 1, 8 h",13.99% and 11.1%
same,metabolites observed in cellular extracts (% of total radioactivity),"[1]; human hepatocytes (Hu759, Hu775), 10 μM [^14C]-Compound 1, 24 h",13.4% and 17.05%
same,2′-C-methyl guanosine nucleotide levels in cellular extracts,"[1]; human hepatocytes (Hu775), 1 μM [^14C]-Compound 1, 0 h",BLD (BLD = below limit of detection (0.02 pmol/million cells))
same,2′-C-methyl guanosine nucleotide levels in cellular extracts,[1]; [3],1.40 pmol/million cells
same,metabolites observed in cellular extracts (% of total radioactivity),[1]; [3],7.94%
same,2′-C-methyl guanosine nucleotide levels in cellular extracts,[1]; [4],7.70 pmol/million cells
same,metabolites observed in cellular extracts (% of total radioactivity),[1]; [4],13.0%
same,2′-C-methyl guanosine nucleotide levels in cellular extracts,[1]; [5],11.2 pmol/million cells
same,metabolites observed in cellular extracts (% of total radioactivity),[1]; [5],12.4%
same,2′-C-methyl guanosine nucleotide levels in cellular extracts,"[1]; human hepatocytes Hu759, 10 μM [^14C]-2′-C-methyl guanosine, 0 h",0 pmol/million cells
same,2′-C-methyl guanosine nucleotide levels in cellular extracts,"[1]; human hepatocytes Hu759, 10 μM [^14C]-2′-C-methyl guanosine, 1 h",2.10 pmol/million cells
same,2′-C-methyl guanosine nucleotide levels in cellular extracts,"[1]; human hepatocytes Hu759, 10 μM [^14C]-2′-C-methyl guanosine, 4 h",7.50 pmol/million cells
same,2′-C-methyl guanosine nucleotide levels in cellular extracts,"[1]; human hepatocytes Hu759, 10 μM [^14C]-2′-C-methyl guanosine, 8 h",22.1 pmol/million cells
same,2′-C-methyl guanosine nucleotide levels in cellular extracts,"[1]; human hepatocytes Hu759, 10 μM [^14C]-2′-C-methyl guanosine, 24 h",46.0 pmol/million cells
same,2′-C-methyl guanosine nucleotide levels in cellular extracts,"[1]; human hepatocytes Hu759, 10 μM [^14C]-Compound 1, 0 h",0 pmol/million cells
same,2′-C-methyl guanosine nucleotide levels in cellular extracts,"[1]; human hepatocytes Hu759, 10 μM [^14C]-Compound 1, 1 h",3.00 pmol/million cells
same,2′-C-methyl guanosine nucleotide levels in cellular extracts,"[1]; human hepatocytes Hu759, 10 μM [^14C]-Compound 1, 4 h",21.0 pmol/million cells
same,2′-C-methyl guanosine nucleotide levels in cellular extracts,"[1]; human hepatocytes Hu759, 10 μM [^14C]-Compound 1, 8 h",45.0 pmol/million cells
same,2′-C-methyl guanosine nucleotide levels in cellular extracts,"[1]; human hepatocytes Hu759, 10 μM [^14C]-Compound 1, 24 h",69.0 pmol/million cells
same,2′-C-methyl guanosine nucleotide levels in cellular extracts,"[1]; human hepatocytes Hu775, 1 μM [^14C]-2′-C-methyl guanosine, 0 h",BLD (BLD = below limit of detection (0.02 pmol/million cells))
same,2′-C-methyl guanosine nucleotide levels in cellular extracts,[1]; [6],BLD (BLD = below limit of detection (0.02 pmol/million cells))
same,Major metabolites observed in cellular extracts (% of total radioactivity),[1]; [6],BLD (BLD = below limit of detection (30 DPM))
same,2′-C-methyl guanosine nucleotide levels in cellular extracts,[1]; [7],2.70 pmol/million cells
same,Major metabolites observed in cellular extracts (% of total radioactivity),[1]; [7],6.83 % of total radioactivity
same,2′-C-methyl guanosine nucleotide levels in cellular extracts,[1]; [8],4.00 pmol/million cells
same,Major metabolites observed in cellular extracts (% of total radioactivity),[1]; [8],9.04 % of total radioactivity
same,2′-C-methyl guanosine nucleotide levels in cellular extracts,"[1]; human hepatocytes Hu775, 10 μM [^14C]-2′-C-methyl guanosine, 0 h",0 pmol/million cells
same,2′-C-methyl guanosine nucleotide levels in cellular extracts,"[1]; human hepatocytes Hu775, 10 μM [^14C]-2′-C-methyl guanosine, 1 h",2.90 pmol/million cells
same,2′-C-methyl guanosine nucleotide levels in cellular extracts,"[1]; human hepatocytes Hu775, 10 μM [^14C]-2′-C-methyl guanosine, 4 h",10.5 pmol/million cells
same,2′-C-methyl guanosine nucleotide levels in cellular extracts,"[1]; human hepatocytes Hu775, 10 μM [^14C]-2′-C-methyl guanosine, 8 h",15.0 pmol/million cells
same,2′-C-methyl guanosine nucleotide levels in cellular extracts,"[1]; human hepatocytes Hu775, 10 μM [^14C]-2′-C-methyl guanosine, 24 h",50.0 pmol/million cells
same,2′-C-methyl guanosine nucleotide levels in cellular extracts,"[1]; human hepatocytes Hu775, 10 μM [^14C]-Compound 1, 0 h",0 pmol/million cells
same,2′-C-methyl guanosine nucleotide levels in cellular extracts,"[1]; human hepatocytes Hu775, 10 μM [^14C]-Compound 1, 1 h",7.10 pmol/million cells
same,2′-C-methyl guanosine nucleotide levels in cellular extracts,"[1]; human hepatocytes Hu775, 10 μM [^14C]-Compound 1, 4 h",38.4 pmol/million cells
same,2′-C-methyl guanosine nucleotide levels in cellular extracts,"[1]; human hepatocytes Hu775, 10 μM [^14C]-Compound 1, 8 h",55 pmol/million cells
same,2′-C-methyl guanosine nucleotide levels in cellular extracts,"[1]; human hepatocytes Hu775, 10 μM [^14C]-Compound 1, 24 h",161 pmol/million cells
same,metabolites observed in cellular extracts (% of total radioactivity),"[2]; monkey hepatocytes (Cy230, Cy234), 10 μM [^14C]-Compound 1, 1 h",9.25% and 9.65%
same,metabolites observed in cellular extracts (% of total radioactivity),"[2]; monkey hepatocytes (Cy230, Cy234), 10 μM [^14C]-Compound 1, 8 h",13.8% and 14.9%
same,metabolites observed in cellular extracts (% of total radioactivity),"[2]; monkey hepatocytes (Cy230, Cy234), 10 μM [^14C]-Compound 1, 24 h",18.5% and 16.0%
same,2′-C-methyl guanosine nucleotide levels in cellular extracts,[2]; [9],44.5 pmol/million cells
same,metabolites observed in cellular extracts (% of total radioactivity),[2]; [9],17.1%
same,2′-C-methyl guanosine nucleotide levels in cellular extracts,"[2]; monkey hepatocytes Cy230, 10 μM [^14C]-2′-C-methyl guanosine, 0 h",0 pmol/million cells
same,2′-C-methyl guanosine nucleotide levels in cellular extracts,[2]; [10],BLD (BLD = below limit of detection (0.02 pmol/million cells))
same,Major metabolites observed in cellular extracts (% of total radioactivity),[2]; [10],BLD (BLD = below limit of detection (30 DPM))
same,2′-C-methyl guanosine nucleotide levels in cellular extracts,[2]; [11],2.07 pmol/million cells
same,Major metabolites observed in cellular extracts (% of total radioactivity),[2]; [11],2.82 % of total radioactivity
same,2′-C-methyl guanosine nucleotide levels in cellular extracts,[2]; [12],2.16 pmol/million cells
same,Major metabolites observed in cellular extracts (% of total radioactivity),[2]; [12],8.41 % of total radioactivity
same,2′-C-methyl guanosine nucleotide levels in cellular extracts,"[2]; monkey hepatocytes Cy230, 10 μM [^14C]-Compound 1, 0 h",0 pmol/million cells
same,2′-C-methyl guanosine nucleotide levels in cellular extracts,"[2]; monkey hepatocytes Cy230, 10 μM [^14C]-Compound 1, 1 h",26.3 pmol/million cells
same,2′-C-methyl guanosine nucleotide levels in cellular extracts,"[2]; monkey hepatocytes Cy230, 10 μM [^14C]-Compound 1, 8 h",153 pmol/million cells
same,2′-C-methyl guanosine nucleotide levels in cellular extracts,"[2]; monkey hepatocytes Cy230, 10 μM [^14C]-Compound 1, 24 h",88.4 pmol/million cells
same,2′-C-methyl guanosine nucleotide levels in cellular extracts,"[2]; monkey hepatocytes Cy234, 10 μM [^14C]-2′-C-methyl guanosine, 0 h",0 pmol/million cells
same,2′-C-methyl guanosine nucleotide levels in cellular extracts,[2]; [13],0.95 pmol/million cells
same,Major metabolites observed in cellular extracts (% of total radioactivity),[2]; [13],2.19 % of total radioactivity
same,2′-C-methyl guanosine nucleotide levels in cellular extracts,[2]; [14],5.30 pmol/million cells
same,Major metabolites observed in cellular extracts (% of total radioactivity),[2]; [14],6.51 % of total radioactivity
same,2′-C-methyl guanosine nucleotide levels in cellular extracts,[2]; [15],7.00 pmol/million cells
same,Major metabolites observed in cellular extracts (% of total radioactivity),[2]; [15],7.90 % of total radioactivity
same,2′-C-methyl guanosine nucleotide levels in cellular extracts,[2]; [16],15.0 pmol/million cells
same,Major metabolites observed in cellular extracts (% of total radioactivity),[2]; [16],14.1 % of total radioactivity
same,2′-C-methyl guanosine nucleotide levels in cellular extracts,"[2]; monkey hepatocytes Cy234, 10 μM [^14C]-Compound 1, 0 h",0 pmol/million cells
same,2′-C-methyl guanosine nucleotide levels in cellular extracts,"[2]; monkey hepatocytes Cy234, 10 μM [^14C]-Compound 1, 1 h",6.10 pmol/million cells
same,2′-C-methyl guanosine nucleotide levels in cellular extracts,"[2]; monkey hepatocytes Cy234, 10 μM [^14C]-Compound 1, 8 h",91.0 pmol/million cells
same,2′-C-methyl guanosine nucleotide levels in cellular extracts,"[2]; monkey hepatocytes Cy234, 10 μM [^14C]-Compound 1, 24 h",111 pmol/million cells
